Source: US9351973B2, “Pyrazolopyridyl compounds as aldosterone synthase inhibitors” (Merck Sharp & Dohme Corp., priority 2011, dated 2016)

Legend:
[1] = target: human CYP11B1 (Homo sapiens (Human), UniProt P15538); experiment: V79-Human-CYP11B1 cell assay (cortisol formation from 11-deoxycortisol, HTRF); format: cell-based; conditions: for IC50: V79 cells stably expressing human CYP11B1, 250 nM 11-deoxycortisol, 3 hours
Method: (§1) Methods for V79-Human-CYP11B2 and V79-Human-CYP11B1 Assays: V79 cell lines stably expressing the either the human CYP11B2 or the human CYP11B1 enzyme were generated using a standard transfection protocol. V79 cells were transfected with plasmids pTriEx3-Hygro-hCyp11B2 or pTriEx3-Hygro-hCyp11B1 using Lipofectamine2000 reagent. V79 cells that stably express the human CYP11B2 or human CYP11B1 enzyme were selected for and maintained in DMEM supplemented with 10% FBS and 400 μg/mL hygromycin for ˜2 weeks. Single cell clones were generated by infinite dilution in DMEM supplemented with 10% FBS and 400 μg/mL hygromycin until single colonies were obtained. Clones V79-hCYP11B2-CLE9 and V79-hCYP11B1-8CLC7, were determined to produce the most aldosterone and cortisol, respectively, and were selected for inhibitor screening. For testing of inhibitors, cells were harvested at 80% confluency with 0.5% Trypsan-EDTA, washed once in PBS, and reconstituted in DMEM+0.1% BSA media at a cell concentration of 600,000 cells/mL for the CYP11B2 assay and 280,000 cells/mL for the CYP11B1 assay. 25 μL of cells were added to a 384 well tissue culture treated plate and mixed with 0.3 μL of inhibitor or DMSO (1% final DMSO concentration) for 1 hour at 37° C., 5% CO2. After pre-incubation with inhibitor, the reaction was initiated by adding 5 μL of substrate (final concentration of 125 nM 11-deoxycorticosterone for the CYP11B2 assay or 250 nM 11-deoxycortisol for the CYP11B1 assay). The reaction was carried out for 3 hours at 37° C., 5% CO2 and was stopped by harvesting the supernatants. The amount of product in the supernatant (aldosterone for CYP11B2 assay and cortisol for the CYP11B1 assay) was measured using HTRF-based assay kit (Aldosterone HTRF-CisBio#64ALDPEB, Cortisol HTRF-CisBio #63IDC002-CORT). IC50s for the inhibitor were determined by plotting the amount of product formed against the concentration of inhibitor using sigmoidal dose-response curve (variable slope) fit in GraphPad.

[2] = target: human CYP11B2 (Homo sapiens (Human), UniProt P19099); experiment: V79-Human-CYP11B2 cell assay (aldosterone formation from 11-deoxycorticosterone, HTRF); format: cell-based; conditions: for IC50: V79 cells stably expressing human CYP11B2, 125 nM 11-deoxycorticosterone, 3 hours
human CYP11B2, sequence (P19099 25-503): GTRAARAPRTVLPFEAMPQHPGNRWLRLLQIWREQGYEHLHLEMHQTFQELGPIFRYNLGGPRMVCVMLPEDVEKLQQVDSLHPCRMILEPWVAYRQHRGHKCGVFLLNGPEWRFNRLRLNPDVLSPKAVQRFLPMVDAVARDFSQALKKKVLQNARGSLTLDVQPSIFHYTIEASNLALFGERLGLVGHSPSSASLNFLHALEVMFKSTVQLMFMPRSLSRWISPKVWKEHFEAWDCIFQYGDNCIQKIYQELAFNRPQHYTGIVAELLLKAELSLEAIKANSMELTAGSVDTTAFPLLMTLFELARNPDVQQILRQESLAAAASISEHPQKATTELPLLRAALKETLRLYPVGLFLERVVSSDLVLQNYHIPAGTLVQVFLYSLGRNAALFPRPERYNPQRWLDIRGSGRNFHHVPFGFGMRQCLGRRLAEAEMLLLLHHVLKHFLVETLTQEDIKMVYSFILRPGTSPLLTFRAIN
Method: as §1

human CYP11B1, sequence (P15538 25-503): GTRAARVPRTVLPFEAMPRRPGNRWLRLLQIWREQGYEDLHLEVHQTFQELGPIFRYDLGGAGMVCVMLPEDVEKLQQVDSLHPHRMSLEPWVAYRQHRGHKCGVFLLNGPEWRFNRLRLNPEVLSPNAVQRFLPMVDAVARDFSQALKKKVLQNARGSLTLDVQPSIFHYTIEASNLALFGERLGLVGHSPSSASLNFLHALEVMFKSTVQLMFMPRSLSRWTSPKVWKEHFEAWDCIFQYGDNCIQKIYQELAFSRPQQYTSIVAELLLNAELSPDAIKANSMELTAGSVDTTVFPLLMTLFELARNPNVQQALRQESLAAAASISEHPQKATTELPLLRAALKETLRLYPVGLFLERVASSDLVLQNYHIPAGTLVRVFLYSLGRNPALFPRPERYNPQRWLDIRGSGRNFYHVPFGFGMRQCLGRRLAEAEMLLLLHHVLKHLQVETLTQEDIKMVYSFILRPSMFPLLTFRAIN

SMILES | IC50 [1] [nM] | IC50 [2] [nM] | inhibition at 1 µM [2] [%] | inhibition at 10 µM [1] [%]
CCc1c(-c2cncc(F)c2)nn2c1NC(=O)CC2 [Example 13, 3-ethyl-2-(5-fluoropyridin-3-yl)-6,7-dihydropyrazolo[1,5-a]pyrimidin-5(4H)-one] | 1350 | 11.7 | – | –
Cc1cncc(-c2nn3c(c2C)NC(=O)CC3)c1 [Example 7, 3-methyl-2-(5-methylpyridin-3-yl)-6,7-dihydropyrazolo[1,5-a]pyrimidin-5(4H)-one] | 282 | 2.2 | – | –
Cc1c(-c2cncc(F)c2)nn2c1NC(=O)CC2 [Example 15, 2-(5-fluoropyridin-3-yl)-3-methyl-6,7-dihydropyrazolo [1,5-a]pyrimidin-5(4H)-one] | 3630 | 30.9 | – | –
N#Cc1c(-c2cncc(Cl)c2)nn2c1NC(=O)CC2 [Example 26, 2-(5-chloropyridin-3-yl)-5-oxo-4,5,6,7-tetrahydropyrazolo[1,5-a]pyrimidine-3-carbonitrile] | 1070 | – | 51 | –
O=C1CCn2nc(-c3cncc(F)c3)c(C3CC3)c2N1 [Example 19, 3-cyclopropyl-2-(5-fluoropyridin-3-yl)-6,7-dihydropyrazolo[1,5-a]pyrimidin-5(4H)-one] | – | 102 | – | 38
Cc1cncc(-c2nn3c(c2C)N(C)C(=O)CC3)c1 [Example 8, 3,4-dimethyl-2-(5-methylpyridin-3-yl)-6,7-dihydropyrazolo[1,5-a]pyrimidin-5(4H)-one] | 3720 | 9.8 | – | –
Cc1c(-c2cncc(F)c2)nn2c1N(C)C(=O)CC2 [Example 12, 2-(5-fluoropyridin-3-yl)-3,4-dimethyl-6,7-dihydropyrazolo[1,5-a]pyrimidin-5(4H)-one] | 1820 | 19.1 | – | –
Cc1cncc(-c2nn3c(c2C#N)NC(=O)CC3)c1 [Example 25, 2-(5-methylpyridin-3-yl)-5-oxo-4,5,6,7-tetrahydropyrazolo[1,5-a]pyrimidine-3-carbonitrile] | – | – | 61 | –
Cc1cncc(-c2nn3c(c2C2CC2)NC(=O)CC3)c1 [Example 10, 3-cyclopropyl-2-(5-methylpyridin-3-yl)-6,7-dihydropyrazolo[1,5-a]pyrimidin-5(4H)-one] | – | 13.2 | – | 71
CCc1c(-c2cncc(C)c2)nn2c1N(C)C(=O)CC2 [Example 9, 3-ethyl-4-methyl-2-(5-methylpyridin-3-yl)-6,7-dihydropyrazolo[1,5-a]pyrimidin-5(4H)-one] | 2340 | 7.8 | – | –
